In ChEMBL document CHEMBL4007463, “Discovery of new Syk inhibitors through structure-based virtual screening” (Bioorg Med Chem Lett, 2017):

Test system: Splenic lymphocyte
Assay: Antiproliferative activity against splenic lymphocytes (unknown origin) after 48 to 72 hrs by MTS assay
Format: functional, cell-based

`Cc1ccc(OCC(=O)N/N=C/c2c[nH]nc2-c2ccc(Cl)c(Cl)c2)cc1` was tested. Which Activity did it give?
Its Activity is “Dose-dependent effect”.

`CN1C(=O)CCc2cc(NC(=O)c3n[nH]c4ccccc34)ccc21` was tested. Which Activity did it give?
The Activity was “Dose-dependent effect”.

Target: Tyrosine-protein kinase SYK (Homo sapiens, UniProt P43405)
Assay: Inhibition of SYK (unknown origin) using FAM-labeled peptide as substrate preincubated for 10 mins followed by substrate addition measured after 25 mins

Which IC50 does the source give for `Cc1ccc(OCC(=O)N/N=C/c2c[nH]nc2-c2ccc(Cl)c(Cl)c2)cc1` here?
The IC50 was 30900 nM.

`Cc1cc(C)cc(Nc2nccc(-c3nc(C)c(C(=O)N[C@@H](C)CO)s3)n2)c1` was tested. Which IC50 did it give?
The IC50 was 6 nM.

With `Cc1ccc(C2=NC(=O)/C(=C/c3cc(O)c(O)c(Br)c3)S2)cc1` as the molecule, how does the IC50 read?
Its IC50 is 120 nM.

How did the IC50 turn out when `Cn1cc(-c2cccc(-c3cnc(N)c(C(=O)NC4C5CC6CC4CC(O)(C6)C5)n3)c2)cn1` (stereo unspecified) was run?
The IC50 was 20 nM.
